Test results: US9463338B2, “Derivatives of the sinapinic acid” (PHARMASYNTHESE, priority 2013, dated 2016)
Values joined by “and” are separate entries in the source; they are usually repeats but may differ in a detail not shown here. Equal entries are not always repeated. Marks after values point to notes of the source that are not given here.

Columns and labels:
[1] = system: normal human dermal fibroblasts; experiment: Production of progerin in monolayer cultures of normal human dermal fibroblasts (ELISA); format: cell-based; details: for Progerin % DMSO / Progerin Average / Progerin, individual values / Progerin Difference (%): 96 hours; for Progerin Difference (%): vs DMSO; for neo synthesis of progerin: under the retained experimental conditions
From the text: In order to study the influence of the compounds of the invention on the concentration of progerin in the cells, the assay method described by C. Verdy, J.-E. Branka and N. Mekideche in <<Quantitative assessment of lactate and progerine production in normal human cutaneous cells during normal ageing: effect of an alaria esculenta extract>>, Int. J. Cosmetic Science, 2011, 1-5, has been used.
(§1) The test system consists of monolayers of adult normal human dermal fibroblasts obtained by cultivating cells collected from a tummy tuck carried out on a person.
Insulin at 10 nM has been used as a reference product in this study. […]
(§2) The compound to be tested is solubilized in 1 mg/ml in DMSO, then diluted in the cells incubation medium, with a constant concentration of 0.1% (v/v) in DMSO.
Upon completion of the incubation period, on the one hand, the progerin has been quantified in the cellular lysates (obtained by ultrasonic action) through a sensitive and specific ELISA assay, and on the other hand, the proteins that are contained in the cellular lysates have been quantified by a spectrophotometric method (Bradford method—Bradford M. (1976) Anal. Biochem., 72, 248-254).
(§3) The statistical significance of the differences that have been observed between the <<Control>> and the <<reference product>> conditions, has been assessed through a Student test. The statistical significance of the differences that have been observed between the <<Check>> and the <<test products>> conditions, has been assessed through a one-way analysis of variance (One Way ANOVA) followed by a Holm-Sidak test (*:p<0.05).

[2] = system: normal human dermal fibroblasts; experiment: Neo synthesis of elastin in monolayer cultures of normal human dermal fibroblasts; format: cell-based; details: 10 ng/ml, 96 hours
Method: as §1
The used reference activator is the ascorbic acid at 100 μg/ml.
The cells have been incubated for 96 hours in the absence (control) or in the presence of the reference product or of increasing concentrations of the active ingredient that is being tested (10 ng/ml; 100 ng/ml; 500 ng/ml).
as §2
Upon completion of the incubation period, the elastin contained in the incubation medium of the explants has been quantified by a spectrophotometric method.
Upon completion of the incubation period, the proteins contained in the cellular lysate have been quantified by a spectrophotometric method (Bradford method—Bradford M. (1976) Anal. Biochem., 72, 248-254).
The results are given in the form of μg of elastin per mg of protein (average+/− the standard deviation, S.D.).

[3] = system: explants of adipose tissues; experiment: Slimming effect: glycerol released in culture medium of adipose tissue explants; format: cell-based, human
Method: The activity of the compounds of the invention on the adipocytes has been assessed. To do so, tests have been carried out on explants of adipose tissues that are kept alive according to the following experimental protocol. The products to be tested are introduced in the culture medium. After 9 days of treatment, the activity is assessed through an assay of the glycerol released in the culture medium. In order to be able to compare the potential activity of the molecules, caffeine (Sigma ref C-0750 batch 127F0396), which is known for its activity on the adipocytes (Studlar M. […] The explants are prepared from a tummy tuck ([…]-AB-40) carried out on a donor. 54 explants of tissues have been prepared and kept alive in a medium which is supplemented with penicillin/streptomycin antibiotics (Gibco ref 15140 batch 918578) at 37° C. and with 5% of CO2. The treatment has been carried out, on 3 explants, by incorporating 100 μl of the product (which is in turn at a 2% concentration in the adequate solvent, DMSO) in 2 ml of the culture medium on days J0, J2, J3, J5 and J7. Caffeine has been diluted to the desired concentration in the culture medium on these same days. The control explants have undergone no treatment. On J0, the 3 explants have been collected and frozen at -80° C. On J9, the remaining explants have been collected and preserved under the same conditions. The extraction of lipids from the culture medium has been carried out according to a tested procedure. The assay of the glycerol of the culture medium has been carried out using a glycerol assay kit (Megazyme, K-GROL) in the form of 96-well microplates and reading has been made at 340 nm with a Tecam Infinite M200 microplate reader associated to the Magellan software.

[4] = ORAC (Oxygen Radical Absorbance Capacity) antioxidant activity; format: biochemical; details: for antioxidant activity in comparison with trolox: ORAC
From the text: The ORAC (Oxygen Radical Absorbance Capacity) method, described in Cao, G., Alessio, H. M., Cutler, R. G. Free radical Biology & Medecine 1993, 14: 303-311<<Oxygen-Radical Absorbance Capacity assay for antioxydants>> and Benderitter, M., Vincent-Genid, L., Pouget, J. P., Voisin, P. Radiation Research 2003; 159 (4): 471-483 <<The cell membrane as a biosensor of oxydative stress induced by radiation exposure:multiparameter investigation>>, has been used for measuring the anti-oxidant capability of the compounds of the invention.
By convention, the ORAC antioxidant activity of any molecule is measured in comparison with a recognized reference which is an analog of vitamin E, the trolox (6-hydroxy-2,5,7,8-tetramethylchroman-2-carboxylic acid), the anti-oxidant capability of 1 μM (micro mole) of trolox corresponding to 1 ORAC unit.
The ORAC values are commonly reported in μmol TE/g (in micromole of Trolox Equivalent per gram of product to be tested).
Given these definitions, the trolox has an ORAC index of about 3995 units.
The ORAC values of the compounds 26 and 34 have been measured (average of 3 measurements).

[5] = system: normal human dermal fibroblasts; experiment: Production of type I pro-collagen in monolayer cultures of normal human dermal fibroblasts (E.I.A.); format: cell-based; details: 48 hours; for Procollagen Difference (%): vs DMSO
Method: as §1
The used reference activator is the Transforming Growth Factor β (TGF-β) at 1 ng/ml. […]
as §2
Upon completion of the incubation period, the type I pro-collagen contained in the fibroblasts incubation media has been quantified using a sensitive and specific E.I.A. kit.
Upon completion of the incubation period, the proteins contained in the cellular lysates have been quantified by a spectrophotometric method (Bradford method—Bradford M. (1976) Anal. Biochem., 72, 248-254).
as §3
The results are given in the form of μg of type I pro-collagen per mg of protein (average+/− the standard deviation, S.D.) and are reported in the following Table 5.

Work on `COc1cc(/C=C/C(=O)Oc2cc(C)ccc2C(C)C)cc(OC)c1OC(C)=O` [Compound 8, 4-acetoxy-3,5-dimethoxy cinnamate of 2-isopropyl-5-methyl phenyl] yielded a melting point of 143 °C.

`COc1cc(/C=C/C(=O)Nc2ccccc2)cc(OC)c1OC(C)=O` [Compound 19, 4-acetoxy-3,5-dimethoxy-N-(phenyl)-cinnamamide] showed a melting point of 100 °C.

For `CCCCCCCCCCCCCCCCNC(=O)/C=C/c1cc(OC)c(OC(C)=O)c(OC)c1` [Compound 22], the “Progerin % DMSO” value ([1]; 10 ng/ml) was 75.4%, the “Progerin Average” value ([1]; 10 ng/ml) was 837.7 ng/mg of protein and the “Progerin, individual values” ([1]; 10 ng/ml) was 880.7 ng/mg of protein and 801.5 ng/mg of protein and 830.7 ng/mg of protein. The “Progerin Difference (%)” value ([1]; 10 ng/ml) was −24.6%, the “Progerin % DMSO” value ([1]; 100 ng/ml) was 52.9% and the “Progerin Average” value ([1]; 100 ng/ml) was 586.9* ng/mg of protein. For the same compound, the “Progerin, individual values” ([1]; 100 ng/ml) was 711.0 ng/mg of protein and 548.8 ng/mg of protein and 500.9 ng/mg of protein, the “Progerin Difference (%)” value ([1]; 100 ng/ml) was −47.1% and the “Progerin % DMSO” value ([1]; 500 ng/ml) was 67.8%. For the same compound, the “Progerin Average” value ([1]; 500 ng/ml) was 752.5 ng/mg of protein, the “Progerin, individual values” ([1]; 500 ng/ml) was 967.8 ng/mg of protein and 727.4 ng/mg of protein and 562.4 ng/mg of protein and the “Progerin Difference (%)” value ([1]; 500 ng/ml) was −32.2%. For the same compound, the “neo synthesis of progerin” value [1] was “significantly decrease”, the “increase of the neo synthesis of elastin” value [2] was “+16.7%” and the “Glycerol % in comparison with caffeine” value ([3]; after 9 days of treatment) was 124%. For the same compound, the “slimming action higher than that of caffeine” value ([3]; after 9 days of treatment) was 24%, the “slimming activity in comparison with caffeine” value ([3]; after 9 days of treatment) was “enhanced slimming activity” and the “Glycerol Average” value ([3]; glycerol released in culture medium after 9 days, 100 μl of 2% product in DMSO in 2 ml medium on J0, J2, J3, J5, J7, 3 explants) was 0.114 mg/mL.

For `COc1cc(/C=C/C(=O)NCCCc2ccccc2)cc(OC)c1OC(C)=O` [Compound 26, 4-acetoxy-3,5-dimethoxy-N-(3-phenylpropyl)-cinnamamide], the “antioxidant activity in comparison with trolox” value [4] was “slightly higher” and the melting point was 132 °C.

With `COc1ccc2[nH]cc(CCNC(=O)/C=C/c3cc(OC)c(OC(C)=O)c(OC)c3)c2c1` [Compound 31, 4-acetoxy-3,5-dimethoxy-N-(5-methoxytryptamyl)-cinnamamide] the “ORAC Antioxidant activity” value ([4]; average of 3 measurements) was 4874 ± 216 μmol TE/g and the melting point was 148 °C.

In the case of `COc1cc(/C=C/C(=O)NC2CC2)cc(OC)c1OC(C)=O` [Compound 34], the “antioxidant activity in comparison with trolox” value [4] is reported as 5 times.

With `COc1cc(/C=C/C(=O)NCCc2ccc(O)cc2)cc(OC)c1OC(C)=O` [Compound 36, 4-acetoxy-3,5-dimethoxy-N-(4′-hydroxyphenylethyl)-cinnamamide] the “Procollagen % DMSO” value ([5]; 50 ng/ml) was 121.5%, the “Procollagen Average” value ([5]; 50 ng/ml) was 63.7* pg/mg of protein and the “Procollagen, individual values” ([5]; 50 ng/ml) was 68.1 pg/mg of protein and 57.8 pg/mg of protein and 65.3 pg/mg of protein. For the same compound, the “Procollagen Difference (%)” value ([5]; 50 ng/ml) was 21.5%, the “Procollagen % DMSO” value ([5]; 500 ng/ml) was 121.8% and the “Procollagen Average” value ([5]; 500 ng/ml) was 63.9* pg/mg of protein. For the same compound, the “Procollagen, individual values” ([5]; 500 ng/ml) was 59.2 pg/mg of protein and 65.1 pg/mg of protein and 67.2 pg/mg of protein, the “Procollagen Difference (%)” value ([5]; 500 ng/ml) was 21.8% and the “Procollagen % DMSO” value ([5]; 5000 ng/ml) was 129.0%. The “Procollagen Average” value ([5]; 5000 ng/ml) was 67.7* pg/mg of protein, the “Procollagen, individual values” ([5]; 5000 ng/ml) was 73.8 pg/mg of protein and 64.8 pg/mg of protein and 64.4 pg/mg of protein and the “Procollagen Difference (%)” value ([5]; 5000 ng/ml) was 29.0%. For the same compound, the “Progerin % DMSO” value ([1]; 50 ng/ml) was 84.0%, the “Progerin Average” value ([1]; 50 ng/ml) was 932.6 ng/mg of protein and the “Progerin, individual values” ([1]; 50 ng/ml) was 1552.2 ng/mg of protein and 690.1 ng/mg of protein and 555.6 ng/mg of protein. For the same compound, the “Progerin Difference (%)” value ([1]; 50 ng/ml) was −16.0%, the “Progerin % DMSO” value ([1]; 500 ng/ml) was 23.7% and the “Progerin Average” value ([1]; 500 ng/ml) was 263.6* ng/mg of protein. The “Progerin, individual values” ([1]; 500 ng/ml) was 249.8 ng/mg of protein and 288.8 ng/mg of protein and 252.1 ng/mg of protein, the “Progerin Difference (%)” value ([1]; 500 ng/ml) was −76.3% and the “Progerin % DMSO” value ([1]; 5000 ng/ml) was 18.8%. The “Progerin Average” value ([1]; 5000 ng/ml) was 208.2* ng/mg of protein, the “Progerin, individual values” ([1]; 5000 ng/ml) was 215.8 ng/mg of protein and 200.8 ng/mg of protein and 207.9 ng/mg of protein and the “Progerin Difference (%)” value ([1]; 5000 ng/ml) was −81.2%. The “neo synthesis of progerin” value [1] was “significantly decrease”, the “increase of the neo synthesis of elastin” value [2] was “+63.7%” and the melting point was 99 °C.

With `COc1cc(/C=C/C(=O)NCC(O)c2ccc(O)cc2)cc(OC)c1OC(C)=O` (stereo not shown) [Compound 39] the “ORAC Antioxidant activity” value ([4]; average of 3 measurements) was 20968 ± 992 μmol TE/g.

For `Cc1c(C)c2c(c(C)c1O)CCC(C)(C(=O)O)O2` (stereo not shown) [Trolox, 6-hydroxy-2,5,7,8-tetramethylchroman-2-carboxylic acid, reference compound], the ORAC index ([4]; reference, given the definitions) was “about 3995 units” and the “ORAC Antioxidant activity” value ([4]; reference, value follows from the definition of the ORAC unit) was 3995 μmol TE/g.
